From patent publication US9757477B2, “Imaging brown adipose tissue with curcumin derivatives” (The General Hospital Corporation, priority 2013, dated 2017)

Test system: interscapular BAT
Test: PET imaging with 18F-labeled curcumin analogue
Type: in vivo, mice
Details: 100-180 μCi tail vein
Procedure: PET imaging was conducted with a microPET P4 system (Concorde Microsystems Incorporated, Knoxville, Tenn., USA). The imaging parameters of this system are in-plane and axial resolution of 1.2 mm full width at half maximal count. Prior to PET imaging, mice were anesthetized with isoflurane/O2, and then fixed to the imaging table with a custom-fabricated mold. Injection catheter was placed in tail vein for administration of the radiotracer. Subsequently, CRANAD-5F^18 (100-180 μCi) was injected into the tail vein and volumetric dynamic data were acquired in list-mode format for 120 min. Imaging data were corrected for uniformity, attenuation, decay, and acquisition time. PET images were reconstructed using filtered back projection with a Ramp filter (cutoff value of 0.5). The software, ASIPro 6.0, was provided by the microPET manufacturer.

CN(C)c1ccc(C=CC(O)=CC(=O)C=Cc2ccc(N(C)CC[18F])cc2)cc1 [CRANAD-5F]
in vivo PET imaging of BAT: clearly highlighted BAT at the interscapular site
